Assay [1] relates to Bacillus subtilis AB91021. As to conditions: comparison values; ref Zeng et al., 2004, 2012; Cao et al., 2012a; cited from earlier work. An excerpt: Table 1 In Vitro antimicrobial activities of marcin-18 and its homologs compared with other peptides and antibiotics. | column: MIC (μM) / BmKn2; MIC (μM) / BmKb1; MIC (μM) / Kana
The subject of assay [2] is Staphylococcus aureus ATCC25923. As to conditions: comparison values; ref Zeng et al., 2004, 2012; Cao et al., 2012a; cited from earlier work. The source says: Table 1 In Vitro antimicrobial activities of marcin-18 and its homologs compared with other peptides and antibiotics. | column: MIC (μM) / BmKn2; MIC (μM) / Kana
For assay [3], the system named is Staphylococcus aureus AB94004. The experiment in a line: MIC, broth microdilution. It counts as cell-based. Particulars: legend of Figure 6. The procedure:
The antimicrobial activity was determined via a broth microdilution assay according to the procedure recommended by the Clinical and Laboratory Standards Institute with some modifications ([Hou et al., 2011]; [Li et al., 2016]). Bacteria were cultured in Luria-Bertani (LB) broth to OD600 = 0.6 at 37°C, then diluted to 10^5–10^6 CFU/mL in LB medium. Peptides were serially double diluted to a gradient concentration range from 48.3 to 1.5 μM in physiological saline. Eighty microliters of the bacterial suspension and 20 μL of diluted peptide at varying concentrations were added to 96-well plates, and then incubated for 16–18 h at 37°C with continuous shaking at 250 rpm. The antimicrobial activity of ampicillin and kanamycin were also tested as positive controls. Experiments were performed in triplicate. The minimum inhibitory concentration (MIC) was determined as the lowest peptide concentration at which no bacterial growth was observed.
For orientation: Broth dilution looks for growth in wells or tubes with falling amounts of substance.

In assay [4] the test system is Staphylococcus aureus AB94004. As to conditions: comparison values; ref Zeng et al., 2004, 2012; Cao et al., 2012a; cited from earlier work. The source says: (§1) Table 1 In Vitro antimicrobial activities of marcin-18 and its homologs compared with other peptides and antibiotics. | column: MIC (μM) / BmKn2; MIC (μM) / Amp; MIC (μM) / Kana
Assay [5] concerns Escherichia coli ATCC25922. Particulars: comparison values; ref Zeng et al., 2004, 2012; Cao et al., 2012a; cited from earlier work.
Excerpt: as §1

We go through 1 molecule from article PMC5987058, “Therapeutic Potential of a Scorpion Venom-Derived Antimicrobial Peptide and Its Homologs Against Antibiotic-Resistant Gram-Positive Bacteria” (Frontiers in Microbiology, 2018).

Converted amounts (≈) assume the structure as drawn.

For the molecule `NC[C@H]1O[C@H](O[C@H]2[C@H](O)[C@@H](O[C@H]3O[C@H](CO)[C@@H](O)[C@H](N)[C@H]3O)[C@H](N)C[C@@H]2N)[C@H](O)[C@@H](O)[C@@H]1O` [Kana, kanamycin], the minimal inhibitory concentration (MIC) in assay [1] is 42.9 µM (≈ 20.8 µg/mL); in assay [2], 10.7 µM (≈ 5.18 µg/mL); in assay [4], 5.4 µM (≈ 2.62 µg/mL); in assay [5], 21.5 µM (≈ 10.4 µg/mL). Further, the “MIC of control substances” value in assay [3] was determined as 5.4 µM.

For orientation: MIC means the lowest concentration that inhibits growth of the organism.
